# Test results: patent publication US11872262B2, “Means and methods for treating bacterial infections” (VIB VZW, priority 2017, dated 2024)
# Residues, ends and D or L forms follow the SMILES beside them.
# Tests used:
# E coli ATCC 25922 = type: cell-based, Escherichia coli
# Procedure: Gram negative bacterial strains were cultivated in Luria-Bertani (LB) broth (Difco) and gram positive bacteria strains were grown in a rich medium, brain heart infusion (BHI) broth (Difco, Sparks, MD) at 37° C. Whenever required, growth media were supplemented with appropriate antibiotic to the medium or plates. Escherichia coli DH5α was used for cloning and plasmid amplification. […] Bacterial CFU counting was done on blood agar plates (BD Biosciences). Species identification and antibiograms for all clinical isolates were performed using MALDI-TOF and VITEK® 2 automated system (bioMérieux).
# The MICs of active peptides were determined via the Broth microdilution assay according to the EUCAST guideline, which were performed in 96-well polystyrene flat-bottom microtiter plates (BD Biosciences). Briefly, a single colony was inoculated into 5 mL LB medium and grown to the end-exponential growth phase in a shaking incubator at 37° C. Cultures were subsequently diluted to an OD600 of 0.002 ([…]) in fresh LB medium. 100 μL of LB medium with different concentration of peptides ranging from 100 μg/mL to 1 μg/mL were serially diluted to the sterile 96-well plate (at least 3 wells in each plate). […] A multipurpose UV/VIS plate reader at OD590 nm, 1 s shaking measured the absorbance of the growth bacteria using a Perkin Elmer spectrophotometer (1420 Multilabel Counter Victor 3).
# [1] = In vitro haemolytic activity test; type: cell-based; settings: human erythrocytes; read-out: LC50, concentration at which the peptide induces 50% lysis of human erythrocytes
# Procedure: The hemolytic activities of peptides were determined by hemolysis against human erythrocytes. Pooled fresh blood was obtained and erythrocytes were collected by centrifugation 3000 rpm for 5 minutes (Anticoagulated by EDTAK) (Cristina et al. 2015). The pellet was washed three times with PBS and was diluted to a concentration of 8% in PBS. 100 μL of 8% Red blood cells solution was mixed with 100 μL of serial dilutions of peptides in PBS buffer in 96 well plates (BD Biosciences). The reaction mixtures were incubated for 1 h at 37° C. Thereupon, the plate was centrifuged for 10 minutes at 3000 rpm and 100 μL of supernatant was transferred to a sterilized 96-well plate (flat bottom). The release of hemoglobin was determined by measuring the absorbance of the supernatant at 405 nm. […] Erythrocytes in 1% Triton and Max used concentration of vehicle were used as control of 100% and 0% hemolysis, respectively.
# In vivo toxicity test = assay: In vivo toxicity test; design: species or system Swiss mice
# Procedure: The procedures used in the assays were approved by the local Animal Ethical Committee and conform to international standards of animal welfare (Approval P067/2015 of the Ethical Committee of KU Leuven). […] Briefly, 5-6 week-old Swiss females were divided into […] (6 animals/group) and administered 30 mg/kg of Colpeptin1 (group A) or vehicle (physiological water pH 7.5) (group b) once a day for 18 days via IP injection. During the treatment period the clinical, physiological and behavioral parameters including body weight, food and water consumption, body condition score, home cage activity and locomotion were constantly monitored and recorded.
# Three days after the last administration animals were anesthetized and blood was collected using a standard retro-orbital puncture from each animal. Next, the mice sacrificed and underwent complete necropsy with gross examination and organ weights. The organs (Heart, Liver, Spleen, kidney, bone marrow, Brain, Lung) were sampled and immersion fixed in 4% paraformaldehyde. Formalin-fixed tissues after dehydration were routinely processed and embedded in paraffin blocks for histopathological examination. 5 μm thick sections taken from these blocks (Thermo Scientific Microm HM355S microtome) were then stained with Hematoxylin and Eosin (Leica ST5010 Autostainer XL) and evaluated under a Leica DM 2500 light microscope by a board-certified veterinary pathologist. Hematology examination was performed using an automate high-resolution flow cytometer, Abbott Cell-Dyn 3700.
# [2] = ELISA on immobilised colpeptin1 with serum of treated animals; type: in vivo; settings: mice treated for 18 days with 30 mg/kg
# Procedure: FIG. 2: Cross seeding and in vivo activity. (A) Fluorescence microscopy image of HeLa cells mixed with E. coli O157 and treated with FITC-labelled Colpeptin1 (green channel). Blue channel is DAPI, red is CellMask Deep Red plasma membrane dye. (D) Inhibitor effect of Colpeptin1 on bacterial growth in the presence of human blood serum (average and s.d. of 3 replicates). (E) ELISA on immobilised colpeptin1 using blood serum of animals treated for 18 days with 30 mg/kg colpeptin1 (3 replicates from 3 mice). […] See materials and methods for details.
# Given these positive results, we then established the tolerance of the Swiss mice to the peptide by performing a dose escalation experiment. […] The parameters observed included body weight, food and water consumption, home cage activity and locomotion. […] Based on these observations, we tested the antibacterial efficacy of the colpeptin1 in a mouse bladder infection model. In this model, an inoculum of 50 μL of a 10^8 CFU/mL suspension of E. coli O157:H7 was delivered via the urethra to the bladder of healthy Swiss mice. 1 h post-infection, we administered a single injection of colpeptin1 at 10 mg/kg, either via the urethra (n=15) or intraperitoneally (n=15). 24 h after treatment, the animals were sacrificed and the bacterial titer in kidney, colon, bladder and ureter was determined by plating the macerated tissue (FIG. 2F-l).
# [3] = mice, 30 mg/kg, 18 consecutive days injection
# [4] = mice, 18 consecutive days of injection, Mean ± SD
smiles,measurement,setting,value
CC(C)C[C@H](NC(=O)CNC(=O)[C@H](CCCNC(=N)N)NC(=O)[C@@H]1CCCN1C(=O)[C@H](CCCNC(=N)N)NC(=O)[C@H](CCCNC(=N)N)NC(=O)[C@@H](NC(=O)[C@H](CC(C)C)NC(=O)[C@H](C)NC(=O)[C@H](CC(C)C)NC(=O)CNC(=O)[C@H](CC(C)C)NC(=O)CNC(=O)[C@@H](N)CCCNC(=N)N)C(C)C)C(=O)NCC(=O)N[C@@H](CC(C)C)C(=O)N[C@@H](C)C(=O)N[C@@H](CC(C)C)C(=O)N[C@H](C(=O)N[C@@H](CCCNC(=N)N)C(=O)N[C@@H](CCCNC(=N)N)C(=O)O)C(C)C [Peptide P2] (H-RGLGLALVRRPRGLGLALVRR-OH),MIC,E coli ATCC 25922,12 µg/mL
same,HC50 at 1 h,[1],1100 µg/mL
same,adverse effects on repeated dosing,"In vivo toxicity test; 6 mice, daily injections at the maximum tolerated dose for 18 days",without any apparent adverse effects
same,"acute adverse effects, dose escalation","In vivo toxicity test; Swiss mice, intraperitoneal administration of up to 30 mg/kg",no acute adverse effects
same,survey of the major organs,In vivo toxicity test; after 18 days dosing and 3 days recovery,no major morphological signs of toxicity
same,Organs weights: Brain,In vivo toxicity test; [3],0.56 ± 0.02 gr
same,Organs weights: Heart,In vivo toxicity test; [3],0.20 ± 0.02 gr
same,Organs weights: Kidneys,In vivo toxicity test; [3],0.58 ± 0.01 gr
same,Organs weights: Liver,In vivo toxicity test; [3],1.90 ± 0.11 gr
same,Organs weights: Spleen,In vivo toxicity test; [3],0.12 ± 0.01 gr
same,"BASO, Basophil absolute count",In vivo toxicity test; [4],0.24 ± 0.02
same,"EOS, Eosinophil absolute count",In vivo toxicity test; [4],0.14 ± 0.06
same,"HCT, Hematocrit",In vivo toxicity test; [4],98.87 ± 3.7
same,"HGB, Hemoglobin concentration",In vivo toxicity test; [4],17.8 ± 0.45
same,"LYM, Lymphocyte absolute count",In vivo toxicity test; [4],5.32 ± 0.52
same,"MCH, Mean Corpuscular Hemoglobin",In vivo toxicity test; [4],48.2 ± 0.34
same,"MCHC, Mean Corpuscular Hemoglobin Concentration",In vivo toxicity test; [4],53.7 ± 0.42
same,"MCV, Mean Corpuscular Volume",In vivo toxicity test; [4],273 ± 1.32
same,"MONO, Monocyte absolute count",In vivo toxicity test; [4],0.15 ± 0.05
same,"MPV, Mean Platelet Volume",In vivo toxicity test; [4],16.36 ± 0.2
same,"NEU, Neutrophil absolute count",In vivo toxicity test; [4],0.80 ± 0.06
same,"PCT, Plateletcrit",In vivo toxicity test; [4],0.88 ± 0.05
same,"PDW, Platelet Distribution Width",In vivo toxicity test; [4],49.9 ± 0.43
same,"PLT, Platelet or Thrombocyte count",In vivo toxicity test; [4],1595 ± 50.7
same,"RBC, Red Blood Cell or Erythrocyte count",In vivo toxicity test; [4],10.9 ± 0.46
same,"WBC, White Blood Cell or Leukocyte count",In vivo toxicity test; [4],6.89 ± 0.42
same,MTD,"In vivo toxicity test; mouse, in vivo, ip, Swiss mice, intraperitoneal, read-out: safe concentration from escalation experiment",30 mg/kg
same,antibody response towards the peptide (ELISA on serum),[2],no specific antibody response
